According to article PMC11593465, “Na^+ Translocation Dominates over H^+-Translocation in the Membrane Pyrophosphatase with Dual Transport Specificity” (International Journal of Molecular Sciences, 2024):

Assays:
[1] = target: T1, Da-mPPase (Na+-translocating mPPase of Desulfuromonas acetoxidans) (Desulfuromonas acetoxidans, UniProt Q1JY39); assay: PPi hydrolysis (continuous Pi assay) and pyranine Na+ transport assay, membrane vesicles; type: biochemical; details: 150 µM PPi, 5 mM MgSO4, 5 mM Na2SO4, 25 mM K2SO4, 100 mM Mops-KOH pH 7.2
T1 construct: gene hppA; recombinant, expressed in E. coli C41(DE3), in inverted membrane vesicles; homodimer of approx. 70-kDa subunits
T1 sequence (Q1JY39 1-668): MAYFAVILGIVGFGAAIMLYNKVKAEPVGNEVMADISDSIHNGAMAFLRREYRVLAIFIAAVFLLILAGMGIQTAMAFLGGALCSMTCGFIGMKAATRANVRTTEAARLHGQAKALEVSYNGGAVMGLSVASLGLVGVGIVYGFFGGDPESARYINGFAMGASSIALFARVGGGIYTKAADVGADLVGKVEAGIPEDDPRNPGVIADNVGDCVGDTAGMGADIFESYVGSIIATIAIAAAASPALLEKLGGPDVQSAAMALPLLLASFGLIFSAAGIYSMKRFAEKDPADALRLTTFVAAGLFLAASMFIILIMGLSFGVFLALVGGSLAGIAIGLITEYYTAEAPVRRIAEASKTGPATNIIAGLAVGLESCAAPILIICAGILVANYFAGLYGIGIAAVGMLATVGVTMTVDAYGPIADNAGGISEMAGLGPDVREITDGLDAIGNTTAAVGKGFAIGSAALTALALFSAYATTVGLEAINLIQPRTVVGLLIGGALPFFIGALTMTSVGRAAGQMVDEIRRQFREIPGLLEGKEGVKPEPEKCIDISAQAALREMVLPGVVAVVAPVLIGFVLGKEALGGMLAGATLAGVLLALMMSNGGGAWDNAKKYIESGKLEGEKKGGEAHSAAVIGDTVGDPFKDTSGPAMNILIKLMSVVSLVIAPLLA

[2] = target: T2, Dh-mPPase (H+-translocating mPPase of Desulfitobacterium hafniense) (Desulfitobacterium hafniense, UniProt B8FXV7); assay: PPi hydrolysis (continuous Pi assay) and pyranine H+ transport assay, membrane vesicles; type: biochemical; details: 150 µM PPi, 5 mM MgSO4, 5 mM Na2SO4, 25 mM K2SO4, 100 mM Mops-KOH pH 7.2
T2 construct: gene hppA; recombinant, expressed in E. coli C41(DE3), in inverted membrane vesicles; homodimer of approx. 70-kDa subunits
T2 sequence (B8FXV7 1-671): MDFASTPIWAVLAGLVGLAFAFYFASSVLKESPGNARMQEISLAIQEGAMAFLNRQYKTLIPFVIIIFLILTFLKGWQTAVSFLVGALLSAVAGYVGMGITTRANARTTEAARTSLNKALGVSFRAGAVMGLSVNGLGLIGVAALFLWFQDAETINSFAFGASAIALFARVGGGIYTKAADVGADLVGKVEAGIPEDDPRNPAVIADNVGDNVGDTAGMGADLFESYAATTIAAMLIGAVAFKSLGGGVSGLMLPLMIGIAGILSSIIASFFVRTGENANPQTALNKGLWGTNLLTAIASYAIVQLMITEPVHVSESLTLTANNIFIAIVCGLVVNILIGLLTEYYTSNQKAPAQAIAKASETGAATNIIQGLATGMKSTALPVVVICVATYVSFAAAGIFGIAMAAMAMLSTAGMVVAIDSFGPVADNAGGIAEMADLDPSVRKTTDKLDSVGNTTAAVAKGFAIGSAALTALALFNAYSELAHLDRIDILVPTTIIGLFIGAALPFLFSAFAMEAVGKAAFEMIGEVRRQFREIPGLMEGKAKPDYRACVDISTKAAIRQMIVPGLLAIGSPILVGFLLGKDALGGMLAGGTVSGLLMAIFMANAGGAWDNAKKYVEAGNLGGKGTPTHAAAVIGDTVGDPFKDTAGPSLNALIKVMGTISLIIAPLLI

[3] = substrate: O=P(O)(O)OP(=O)(O)O; assay: cells, lysate or membranes; type: biochemical, Phocaeicola vulgatus; details: total PPi, first (stronger) of two sites in the dimer, macroscopic constant, 4.8 mM free Mg2+, 10 mM Na+ (5 mM Na2SO4), 25 mM K2SO4, 100 mM Mops-KOH pH 7.2, 25 °C

## O=P(O)(O)OP(=O)(O)O [PPi]
[1]
  PPi hydrolysis (continuous Pi assay) and pyranine Na+ transport assay, membrane: Na^+-translocating Da-mPPase caused monensin-sensitive alkalinization of the vesicle lumen in response to PPi addition
[2]
  PPi hydrolysis (continuous Pi assay) and pyranine H+ transport assay, membrane v: the PPi addition to Dh-mPPase-containing vesicles progressively decreased pyranine fluorescence

B1: Bv-mPPase (Bacteroides vulgatus Na+,H+-translocating mPPase) (Phocaeicola vulgatus ATCC 8482) (protein)
chain: METYLFWIVPIASLLALVLAWYFYKQMMLESEGTPTMEKIASYVRQGAMSYLKQQYKVVGLVFLGLVILFSIMAYGFNLQNPWVPIAFLTGGFFSGLSGFLGMKTATYASARTANAAQHSLNKGLRVAFRSGAVMGLVVVGLGLLDISFWYILLDYCIPTDALNPSAKLCVITTTMLTFGMGASTQALFARVGGGIYTKAADVGADLVGKVEAGIPEDDPRNPATIADNVGDNVGDVAGMGADLYESYCGSILATAALGAAAFIGSDDTVMQFKAVIAPMLIAAVGIVLSIIGIFAVRTKENAGMKELLGSLATGTNLSSVLIVVATFLILWALGLENWVNISFAVVVGLIVGIVIGRSTEYYTSQSYKPTQRLAESGKTGPATVIISGIGLGMVSTTIPVLAVVTGIILSYWLASGFDFANISMGLYGIGIAAVGMLSTLGITLATDAYGPIADNAGGNAEMSGLGKEVRKRTDALDSLGNTTAATGKGFAIGSAALTGLALLASYVEEIRIGLTRLGQTILELPNGITVDVHNASFTDYMLYYDVTLMNPKVLSGMFLGSMMAFLFCGLTMNAVGRAAAHMVEEVRRQFREIKGILTGEAEPDYARCVQISTKGAQREMVFPSLLAIIAPIATGLIFGVPGVIGLLIGGLSSGFVLAIFMANAGGAWDNAKKFIEEGNFGGKGSEVHKATVTGDTVGDPFKDTSGPSLNILIKLMSMVAIVMAGLTVAWSLF
notes: recombinant, expressed in E. coli C41(DE3), in inverted membrane vesicles; homodimer of approx. 70-kDa subunits; EC 7.1.3.1
[3]
  Km: 15 ± 1 µM
